System: MV-4-11 cells
Experiment: Gene expression microarray analysis (Affymetrix PrimeView) and GSEA
Format: cell-based, human
Set-up: RFU PODN (11730768_x_at) / Fold change /veh PODN (11730768_x_at) / RFU LINC00158 (11744669_a_at) / Fold change /veh LINC00158 (11744669_a_at) / RFU DUSP10 (11751237_a_at) / Fold change /veh DUSP10 (11751237_a_at) / RFU ID3 (11757404_x_at) / Fold change /veh ID3 (11757404_x_at) / RFU PLEKHG5 (11737974_s_at) / Fold change /veh PLEKHG5 (11737974_s_at) / RFU LRRC4B (11730491_at) / Fold change /veh LRRC4B (11730491_at) / RFU GIMAP4 (11747438_a_at) / Fold change /veh GIMAP4 (11747438_a_at) / RFU KRT8 (11758183_x_at) / Fold change /veh KRT8 (11758183_x_at) / RFU CNN1 (11734310_a_at) / Fold change /veh CNN1 (11734310_a_at) / RFU VPS37D (11726825_at) / Fold change /veh VPS37D (11726825_at) / RFU C10orf10 (11716522_x_at) / Fold change /veh C10orf10 (11716522_x_at) / RFU KIR2DL2 /// KIR2DL4 /// KIR2DL5A /// KIR2DL5B /// KIR2DS1 /// KIR2DS2 /// KIR2DS3 /// KIR2DS4 /// KIR3DL3 /// KIR3DL3 /// KIR3DS1 (11738374_at) / Fold change /veh KIR2DL2 /// KIR2DL4 /// KIR2DL5A /// KIR2DL5B /// KIR2DS1 /// KIR2DS2 /// KIR2DS3 /// KIR2DS4 /// KIR3DL3 /// KIR3DL3 /// KIR3DS1 (11738374_at) / RFU C1QL1 (11718748_at) / Fold change /veh C1QL1 (11718748_at) / RFU TMPRSS4 (11747572_a_at) / Fold change /veh TMPRSS4 (11747572_a_at) / RFU HAMP (11756126_x_at) / Fold change /veh HAMP (11756126_x_at) / RFU RNFT2 (11725882_a_at) / Fold change /veh RNFT2 (11725882_a_at) / RFU NR4A2 (11747474_a_at) / Fold change /veh NR4A2 (11747474_a_at) / RFU ABCC12 (11746883_a_at) / Fold change /veh ABCC12 (11746883_a_at) / RFU TMEM136 (11760407_x_at) / Fold change /veh TMEM136 (11760407_x_at) / RFU CLDN22 /// WWC2 (11732394_at) / Fold change /veh CLDN22 /// WWC2 (11732394_at) / RFU HLA-DPB1 (11760878_x_at) / Fold change /veh HLA-DPB1 (11760878_x_at) / RFU SPINT1 (11716480_a_at) / Fold change /veh SPINT1 (11716480_a_at) / RFU GAP43 (11754022_s_at) / Fold change /veh GAP43 (11754022_s_at) / RFU A4GNT (11735810_at) / Fold change /veh A4GNT (11735810_at) / RFU PRB3 (11715151_x_at) / Fold change /veh PRB3 (11715151_x_at) / RFU TUBB4B (11761932_at) / Fold change /veh TUBB4B (11761932_at) / RFU CAPN14 (11732068_a_at) / Fold change /veh CAPN14 (11732068_a_at) / RFU TMCC2 (11721928_a_at) / Fold change /veh TMCC2 (11721928_a_at) / RFU IRGQ (11745062_a_at) / Fold change /veh IRGQ (11745062_a_at) / RFU FAM174B (11720279_a_at) / Fold change /veh FAM174B (11720279_a_at) / RFU TMPRSS4 (11748680_a_at) / Fold change /veh TMPRSS4 (11748680_a_at) / RFU FAM212B (11763350_a_at) / Fold change /veh FAM212B (11763350_a_at) / RFU PLEKHG5 (11743358_a_at) / Fold change /veh PLEKHG5 (11743358_a_at) / RFU ZSCAN30 (11745921_a_at) / Fold change /veh ZSCAN30 (11745921_a_at) / RFU CMKLR1 (11741424_a_at) / Fold change /veh CMKLR1 (11741424_a_at) / RFU LOC101060620 /// MAPK8IP1 (11723275_at) / Fold change /veh LOC101060620 /// MAPK8IP1 (11723275_at) / RFU SPTSSB (11747773_x_at) / Fold change /veh SPTSSB (11747773_x_at) / RFU PRSS12 (11739890_at) / Fold change /veh PRSS12 (11739890_at) / RFU BIN1 (11741810_x_at) / Fold change /veh BIN1 (11741810_x_at) / RFU WNT11 (11732464_a_at) / Fold change /veh WNT11 (11732464_a_at) / RFU C10orf10 (11716521_a_at) / Fold change /veh C10orf10 (11716521_a_at) / RFU C5orf56 (11738089_at) / Fold change /veh C5orf56 (11738089_at) / RFU CYB561 (11721691_x_at) / Fold change /veh CYB561 (11721691_x_at) / RFU ANKRD19P (11752326_a_at) / Fold change /veh ANKRD19P (11752326_a_at) / RFU OR2T12 /// OR2T33 /// OR2T8 (11738714_s_at) / Fold change /veh OR2T12 /// OR2T33 /// OR2T8 (11738714_s_at) / RFU VCAN (11748164_a_at) / Fold change /veh VCAN (11748164_a_at) / RFU JSRP1 (11732532_at) / Fold change /veh JSRP1 (11732532_at) / RFU KRTAP10-11 (11738290_x_at) / Fold change /veh KRTAP10-11 (11738290_x_at) / RFU MYO3A (11730013_a_at) / Fold change /veh MYO3A (11730013_a_at) / RFU EBF3 (11725865_a_at) / Fold change /veh EBF3 (11725865_a_at) / RFU CAMK2N1 (11719241_x_at) / Fold change /veh CAMK2N1 (11719241_x_at) / RFU C5orf56 (11738088_a_at) / Fold change /veh C5orf56 (11738088_a_at) / RFU OLFML3 (11715873_a_at) / Fold change /veh OLFML3 (11715873_a_at) / RFU LOC100653217 /// NTM (11731650_a_at) / Fold change /veh LOC100653217 /// NTM (11731650_a_at) / RFU MAPK11 (11762145_a_at) / Fold change /veh MAPK11 (11762145_a_at) / RFU FIZ1 (11724087_x_at) / Fold change /veh FIZ1 (11724087_x_at) / RFU OASL (11726364_x_at) / Fold change /veh OASL (11726364_x_at) / RFU SOX15 (11748057_x_at) / Fold change /veh SOX15 (11748057_x_at) / RFU CD79A (11719716_a_at) / Fold change /veh CD79A (11719716_a_at) / RFU HIST1H1D (11736915_at) / Fold change /veh HIST1H1D (11736915_at) / RFU CASKIN2 (11723855_a_at) / Fold change /veh CASKIN2 (11723855_a_at) / RFU LOC730098 (11760151_x_at) / Fold change /veh LOC730098 (11760151_x_at) / RFU OR4N2 (11742367_at) / Fold change /veh OR4N2 (11742367_at) / RFU PRRT2 (11749266_a_at) / Fold change /veh PRRT2 (11749266_a_at) / RFU SNX32 (11753110_a_at) / Fold change /veh SNX32 (11753110_a_at) / RFU CDHR5 (11726645_a_at) / Fold change /veh CDHR5 (11726645_a_at) / RFU RCAN1 (11760418_a_at) / Fold change /veh RCAN1 (11760418_a_at) / RFU FAM167A (11723789_a_at) / Fold change /veh FAM167A (11723789_a_at) / RFU FAM26E (11764081_at) / Fold change /veh FAM26E (11764081_at) / RFU ISYNA1 (11749810_s_at) / Fold change /veh ISYNA1 (11749810_s_at) / RFU ACY1 (11761880_at) / Fold change /veh ACY1 (11761880_at) / RFU 11764098_at / Fold change /veh 11764098_at / RFU SAMD14 (11745864_x_at) / Fold change /veh SAMD14 (11745864_x_at) / RFU NPB (11741838_a_at) / Fold change /veh NPB (11741838_a_at) / RFU TMPRSS6 (11731388_a_at) / Fold change /veh TMPRSS6 (11731388_a_at) / RFU KRTAP10-2 (11738614_at) / Fold change /veh KRTAP10-2 (11738614_at) / RFU ARHGAP8 /// PRR5-ARHGAP8 (11727945_x_at) / Fold change /veh ARHGAP8 /// PRR5-ARHGAP8 (11727945_x_at) / RFU KRTAP5-7 /// NADSYN1 (11734609_at) / Fold change /veh KRTAP5-7 /// NADSYN1 (11734609_at) / RFU RASL12 (11751679_a_at) / Fold change /veh RASL12 (11751679_a_at) / RFU CDKN2B (11736163_a_at) / Fold change /veh CDKN2B (11736163_a_at) / RFU PRF1 (11729649_at) / Fold change /veh PRF1 (11729649_at) / RFU, ZNF638 /// ZNF638-IT1 / Fold change vs veh, ZNF638 /// ZNF638-IT1 / RFU, PANK3 / Fold change vs veh, PANK3 / RFU, SH3YL1 / Fold change vs veh, SH3YL1 / RFU, ZEB2 / Fold change vs veh, ZEB2 / RFU, NRIP1 / Fold change vs veh, NRIP1 / RFU, PTTG1IP / Fold change vs veh, PTTG1IP / RFU, CAPN2 / Fold change vs veh, CAPN2 / RFU, MED14 / Fold change vs veh, MED14 / RFU, SNORA58 / Fold change vs veh, SNORA58 / RFU, C1orf63 / Fold change vs veh, C1orf63 / RFU, LRRFIP1 / Fold change vs veh, LRRFIP1 / RFU, NDUFAF7 / Fold change vs veh, NDUFAF7 / RFU, SLC12A2 / Fold change vs veh, SLC12A2 / RFU, IBTK / Fold change vs veh, IBTK / RFU, ESF1 / Fold change vs veh, ESF1 / Fold change vs veh, TMEM50B / RFU, TAOK1 / Fold change vs veh, TAOK1 / RFU, ACBD3 / Fold change vs veh, ACBD3 / RFU, TMA16 / Fold change vs veh, TMA16 / RFU, RWDD3 / Fold change vs veh, RWDD3 / RFU, BCAT1 / Fold change vs veh, BCAT1 / RFU, EDEM3 / Fold change vs veh, EDEM3 / RFU, TMEM33 / Fold change vs veh, TMEM33 / RFU, WDR75 / Fold change vs veh, WDR75 / RFU, AHCTF1 / Fold change vs veh, AHCTF1 / RFU, TFRC / Fold change vs veh, TFRC / RFU, ZDHHC17 / Fold change vs veh, ZDHHC17 / RFU, NOM1 / Fold change vs veh, NOM1 / RFU, ARL8B / Fold change vs veh, ARL8B / RFU, ZBTB11 / Fold change vs veh, ZBTB11 / RFU, TAMM41 / Fold change vs veh, TAMM41 / RFU, KIAA1704 /// LOC100996395 / Fold change vs veh, KIAA1704 /// LOC100996395 / RFU, ING1 / Fold change vs veh, ING1 / RFU, TRMT61B / Fold change vs veh, TRMT61B / RFU, FUBP3 / Fold change vs veh, FUBP3 / RFU, TP53 / Fold change vs veh, TP53 / RFU, TNKS2 / Fold change vs veh, TNKS2 / RFU, ZFP14 / Fold change vs veh, ZFP14 / RFU, ACTR2 / Fold change vs veh, ACTR2 / RFU, PPP3R1 / Fold change vs veh, PPP3R1 / RFU, PIK3R1 / Fold change vs veh, PIK3R1 / RFU, HNRNPA1 / Fold change vs veh, HNRNPA1 / RFU, RNF170 / Fold change vs veh, RNF170 / RFU, ZNF28 / Fold change vs veh, ZNF28 / RFU, RNGTT / Fold change vs veh, RNGTT / RFU, OGT / Fold change vs veh, OGT / RFU, BRD1 / Fold change vs veh, BRD1 / RFU, MARS / Fold change vs veh, MARS / RFU, ZNF655 / Fold change vs veh, ZNF655 / RFU, FAHD1 / Fold change vs veh, FAHD1 / RFU, BDP1 / Fold change vs veh, BDP1 / RFU, LRRCC1 / Fold change vs veh, LRRCC1 / RFU, ARID1A / Fold change vs veh, ARID1A / RFU, ZNF146 / Fold change vs veh, ZNF146 / RFU, ZNF330 / Fold change vs veh, ZNF330 / RFU, GPN3 / Fold change vs veh, GPN3 / RFU, C9orf123 / Fold change vs veh, C9orf123 / RFU, N4BP2L2 / Fold change vs veh, N4BP2L2 / RFU, ARFIP1 / Fold change vs veh, ARFIP1 / RFU, FAM179B / Fold change vs veh, FAM179B / RFU, BCL10 / Fold change vs veh, BCL10 / RFU, UHRF1BP1L / Fold change vs veh, UHRF1BP1L / RFU, BET1 / Fold change vs veh, BET1 / RFU, CNOT2 / Fold change vs veh, CNOT2 / RFU, ZNF268 / Fold change vs veh, ZNF268 / Fold change vs veh, ZNF507 / RFU, DGCR2 / Fold change vs veh, DGCR2 / RFU, WDSUB1 / Fold change vs veh, WDSUB1 / Fold change vs veh, HSP90B1 /// MIR3652 / RFU, ADSS / Fold change vs veh, ADSS / RFU, GK / Fold change vs veh, GK / RFU, ZNF148 / Fold change vs veh, ZNF148 / RFU, TAF9 / Fold change vs veh, TAF9 / RFU, SLC1A5 / Fold change vs veh, SLC1A5 / RFU, SLMO2 / Fold change vs veh, SLMO2 / RFU, ABCC4 / Fold change vs veh, ABCC4 / RFU, LOC101060439 /// RAP1B / Fold change vs veh, LOC101060439 /// RAP1B / RFU, RFX7 / Fold change vs veh, RFX7 / RFU, GTPBP10 / Fold change vs veh, GTPBP10 / RFU, CNEP1R1 / Fold change vs veh, CNEP1R1 / RFU, BIVM-ERCC5 /// ERCC5 / Fold change vs veh, BIVM-ERCC5 /// ERCC5 / RFU, ILF3 / Fold change vs veh, ILF3 / RFU 11762660_at / Fold change /veh 11762660_at / RFU VCAN (11757783_s_at) / Fold change /veh VCAN (11757783_s_at) / RFU DDX43 (11728927_at) / Fold change /veh DDX43 (11728927_at) / RFU KRT8 (11758188_x_at) / Fold change /veh KRT8 (11758188_x_at) / RFU NKD1 (11759106_at) / Fold change /veh NKD1 (11759106_at) / RFU SRD5A1 (11742802_a_at) / Fold change /veh SRD5A1 (11742802_a_at) / RFU TPSAB1 /// TPSB2 (11721975_s_at) / Fold change /veh TPSAB1 /// TPSB2 (11721975_s_at) / RFU GSTM3 (11746129_a_at) / Fold change /veh GSTM3 (11746129_a_at) / RFU IL23R (11737362_x_at) / Fold change /veh IL23R (11737362_x_at) / RFU TMEM51 (11727254_a_at) / Fold change /veh TMEM51 (11727254_a_at) / RFU PIWIL2 (11732686_x_at) / Fold change /veh PIWIL2 (11732686_x_at) / RFU ORM1 (11744905_x_at) / Fold change /veh ORM1 (11744905_x_at) / RFU CCDC152 (11743942_at) / Fold change /veh CCDC152 (11743942_at) / RFU ECM1 (11717891_a_at) / Fold change /veh ECM1 (11717891_a_at) / RFU IL23R (11748794_a_at) / Fold change /veh IL23R (11748794_a_at) / RFU TNFAIP8L3 (11732012_x_at) / Fold change /veh TNFAIP8L3 (11732012_x_at) / RFU MBOAT4 (11741988_at) / Fold change /veh MBOAT4 (11741988_at) / RFU 11764193_at / Fold change /veh 11764193_at / RFU TMEM53 (11763286_at) / Fold change /veh TMEM53 (11763286_at) / RFU MAGEB2 (11727129_at) / Fold change /veh MAGEB2 (11727129_at) / RFU TMEM200A (11744735_a_at) / Fold change /veh TMEM200A (11744735_a_at) / RFU CCDC152 (11751479_a_at) / Fold change /veh CCDC152 (11751479_a_at) / RFU FAM211A (11726209_a_at) / Fold change /veh FAM211A (11726209_a_at) / RFU RGS16 (11746705_a_at) / Fold change /veh RGS16 (11746705_a_at) / RFU VCAN (11755009_s_at) / Fold change /veh VCAN (11755009_s_at) / RFU RHOB (11743442_s_at) / Fold change /veh RHOB (11743442_s_at) / RFU RGS16 (11720943_a_at) / Fold change /veh RGS16 (11720943_a_at) / RFU RGS16 (11720944_at) / Fold change /veh RGS16 (11720944_at) / RFU, VPS4B / Fold change vs veh, VPS4B / RFU, CREB1 / Fold change vs veh, CREB1 / RFU, DNAJC13 / Fold change vs veh, DNAJC13 / RFU, GNAQ / Fold change vs veh, GNAQ / RFU, CDK5R1 / Fold change vs veh, CDK5R1 / RFU, ZRANB3 / Fold change vs veh, ZRANB3 / RFU, CUL4A / Fold change vs veh, CUL4A / RFU, CCNY / Fold change vs veh, CCNY / RFU, UFL1 / Fold change vs veh, UFL1 / RFU, COG3 / Fold change vs veh, COG3 / RFU, DIAPH2 / Fold change vs veh, DIAPH2 / RFU, SKA2 / Fold change vs veh, SKA2 / RFU, AFF3 / Fold change vs veh, AFF3 / RFU, LMF1 / Fold change vs veh, LMF1 / RFU, IPO11 / Fold change vs veh, IPO11 / RFU, DFFB / Fold change vs veh, DFFB / RFU, FOXP1 / Fold change vs veh, FOXP1 / RFU, CARD8 / Fold change vs veh, CARD8 / RFU, STRN3 / Fold change vs veh, STRN3 / RFU, ADK / Fold change vs veh, ADK / RFU, RASSF2 / Fold change vs veh, RASSF2 / RFU, WIPF1 / Fold change vs veh, WIPF1 / RFU, LARP1B / Fold change vs veh, LARP1B / RFU, RASA1 / Fold change vs veh, RASA1 / RFU, RB1 / Fold change vs veh, RB1 / RFU, PPFIA1 / Fold change vs veh, PPFIA1 / RFU, MAT2A / Fold change vs veh, MAT2A / RFU, CCT5 / Fold change vs veh, CCT5 / RFU, WDR92 / Fold change vs veh, WDR92 / RFU, CUX1 / Fold change vs veh, CUX1 / RFU, TTC7A / Fold change vs veh, TTC7A / RFU, TMEM135 / Fold change vs veh, TMEM135 / RFU, DEPTOR / Fold change vs veh, DEPTOR / RFU, CPM / Fold change vs veh, CPM / RFU, DNAJB6 / Fold change vs veh, DNAJB6 / RFU, CACNA2D3 / Fold change vs veh, CACNA2D3 / RFU, DTX4 / Fold change vs veh, DTX4 / RFU, TFCP2 / Fold change vs veh, TFCP2 / RFU, GMCL1 /// GMCL1P1 / Fold change vs veh, GMCL1 /// GMCL1P1 / RFU, AEBP2 / Fold change vs veh, AEBP2 / RFU, SNHG1 /// SNORD22 /// SNORD25 /// SNORD26 /// SNORD27 /// SNORD28 /// SNORD29 /// SNORD31 / Fold change vs veh, SNHG1 /// SNORD22 /// SNORD25 /// SNORD26 /// SNORD27 /// SNORD28 /// SNORD29 /// SNORD31 / Fold change (Aza/veh), C12orf56 (ProbeSet 11735607_a_at) / Fold change (ACY-1035/veh), C12orf56 (ProbeSet 11735607_a_at) / Fold change (Aza/veh), FGFR1OP (ProbeSet 11751329_s_at) / Fold change (ACY-1035/veh), FGFR1OP (ProbeSet 11751329_s_at) / Fold change (Aza/veh), VPS36 (ProbeSet 11739960_a_at) / Fold change (ACY-1035/veh), VPS36 (ProbeSet 11739960_a_at) / RFU SYPL1 (11715823_x_at) / Fold change /veh SYPL1 (11715823_x_at) / RFU IGFBP7 (11715501_s_at) / Fold change /veh IGFBP7 (11715501_s_at) / RFU REEP3 (11722064_at) / Fold change /veh REEP3 (11722064_at) / RFU IGLL1 (11728026_x_at) / Fold change /veh IGLL1 (11728026_x_at): dose or concentration left out as unconfirmed
Settings: ProbeSet 11743567_s_at; LIST B

Nc1ccc(-c2cccs2)cc1NC(=O)c1ccc2c(c1)cc(C1CC1)n2CCN1CCOCC1 [ACY-1035]
RFU, ACBD3: 241.56 RFU

Reference: PMC5218480 (PLoS ONE, 2017)
